Experimental data from patent US6686475B2, “Compounds” (Beecham Group p.l.c., priority 1988, dated 2004).

Experiments:
[1] = system: C57bl/6 obese (ob/ob) mice; assay: Obese Mice, Oral Glucose Tolerance Test; type: in vivo; details: 8 days on diet, oral glucose load 3 g/kg, vs control groups; for inhibition in vivo at 100 µmol/kg: level in diet 100 μmol kg^-1 of diet; for inhibition in vivo at 300 µmol/kg: level in diet 300 μmol kg^-1 of diet; for inhibition in vivo at 30 µmol/kg: level in diet 30 μmol kg^-1 of diet
Procedure: Obese Mice, Oral Glucose Tolerance Test
C57bl/6 obese (ob/ob) mice were fed on powdered oxoid diet. After at least one week, the mice continued on a powdered oxoid diet or were fed powdered oxoid diet containing the test compound. After 8 days on the supplemented diet all of the mice were fasted for 5 hours prior to receiving an oral load of glucose (3 g/kg). Blood samples for glucose analysis were taken 0, 45, 90 and 135 minutes after glucose administration and the results appear below as the percentage reduction in area under the blood glucose curve where test compound treated groups are compared with the control groups. 7 mice were used for each treatment.

[2] = system: spontaneously hypertensive rats; assay: Anti-Hypertensive Activity, blood pressure in spontaneously hypertensive rats; type: in vivo
Procedure: Anti-Hypertensive Activity
Eight month old female, spontaneously hypertensive rats were given test compound once each day for 15 days. Prior to the experiment and on days 8 and 15, the rats were fasted overnight from 5.00 pm and blood pressure was recorded the following morning, immediately prior to dosing and again 2 h later. Food was returned after the 2 h blood pressure reading.
The results below were obtained using the compound of Example 3 as the test compound.

[3] = Mus musculus, 192 h, read-out: % REDUCTION IN AREA UNDER BLOOD GLUCOSE CURVE

melting point | Molecule | inhibition in vivo at 100 µmol/kg [1, 3] | other results
 | 5-(4-[2-(N-Methyl-N-(2-benzoxazolyl)amino)ethoxy]benzyl)-2,4-thiazolidinedione hemihydrate [Example 3] |  | % REDUCTION IN AREA UNDER BLOOD GLUCOSE CURVE ([1]; level in diet 10 μmol kg^-1 of diet): 39%; Blood pressure ([2]; 10 μmole/kg once each day, Day 0 (prior to the experiment), 0 hours): 210 ± 13 mm Hg; Blood pressure ([2]; 10 μmole/kg once each day, Day 8, 0 hours (immediately prior to dosing)): 191 ± 6 mm Hg; Blood pressure ([2]; 10 μmole/kg once each day, Day 8, 2 hours after dosing): 185 ± 12 mm Hg; Blood pressure ([2]; 10 μmole/kg once each day, Day 15, 0 hours (immediately prior to dosing)): 198 ± 17 mm Hg; Blood pressure ([2]; 10 μmole/kg once each day, Day 15, 2 hours after dosing): 185 ± 5 mm Hg; Blood pressure ([2]; 30 μmole/kg once each day, Day 0 (prior to the experiment), 0 hours): 210 ± 13 mm Hg; Blood pressure ([2]; 30 μmole/kg once each day, Day 8, 0 hours (immediately prior to dosing)): 181 ± 11 mm Hg; Blood pressure ([2]; 30 μmole/kg once each day, Day 8, 2 hours after dosing): 174 ± 15 mm Hg; Blood pressure ([2]; 30 μmole/kg once each day, Day 15, 0 hours (immediately prior to dosing)): 178 ± 18 mm Hg; Blood pressure ([2]; 30 μmole/kg once each day, Day 15, 2 hours after dosing): 170 ± 13 mm Hg
 | CN(CCOc1ccc(CC2SC(=O)NC2=O)cc1)c1nc2ccccc2s1 (centres unmarked) [Example 1, 5-(4-[2-(N-Methyl-N-(2-benzothiazolyl)amino)ethoxy]benzyl)-2,4-thiazolidinedione] | 51% | 
 | CN(CCOc1ccc(/C=C2\SC(=O)NC2=O)cc1)c1nc2ccccc2s1 [Example 2, 5-(4-[2-(N-Methyl-N-(2-benzothiazolyl)amino)ethoxy]benzylidene)-2,4-thiazolidinedione] |  | inhibition in vivo at 300 µmol/kg [1, 3]: 30%
 | CN(CCOc1ccc(/C=C2\SC(=O)NC2=O)cc1)c1nc2ccccc2o1 [Example 4, 5-(4-[2-(N-Methyl-N-(2-benzoxazolyl)amino)ethoxy]benzylidene)-2,4-thiazolidinedione] |  | inhibition in vivo at 300 µmol/kg [1, 3]: 30%
 | CN(CCOc1ccc(CC2SC(=O)NC2=O)cc1)c1ncccn1 (centres unmarked) [Example 5, 5-(4-[2-(N-Methyl-N-(2-pyrimidinyl)amino)ethoxy]benzyl)-2,4-thiazolidinedione] | 40% | 
 | Cc1nc(N(C)CCOc2ccc(CC3SC(=O)NC3=O)cc2)sc1C (centres unmarked) [Example 7] |  | inhibition in vivo at 50 µmol/kg ([1]; Mus musculus, 192 h, level in diet 50 μmol kg^-1 of diet, read-out: % REDUCTION IN AREA UNDER BLOOD GLUCOSE CURVE): 47%
175 °C | Cc1nc(N(C)CCOc2ccc(/C=C3\SC(=O)NC3=O)cc2)sc1C [Example 8, 5-(4-[2-(N-Methyl-N-[2-(4,5-dimethylthiazolyl)]amino)ethoxy]benzylidene)-2,4-thiazolidinedione] |  | 
186 °C | CN(CCOc1ccc(CC2SC(=O)NC2=O)cc1)c1nccs1 (centres unmarked) [Example 9, 5-(4-[2-(N-Methyl-N-(2-thiazolyl)amino)ethoxy]benzyl)-2,4-thiazolidinedione] | 58% | 
62 to 65 °C | CN(CCOc1ccc(CC2SC(=O)NC2=O)cc1)c1nc(-c2ccccc2)cs1 (centres unmarked) [Example 11, 5-[4-(2-(N-Methyl-N-(2-(4-phenylthiazolyl))amino)ethoxy)benzyl]-2,4-thiazolidinedione] | 34% | 
134 °C | CN(CCOc1ccc(/C=C2\SC(=O)NC2=O)cc1)c1nc(-c2ccccc2)cs1 [Example 12, 5-(4-[2-(N-Methyl-N-(2-(4-phenylthiazolyl))amino)ethoxy]benzylidene)-2,4-thiazolidinedione] |  | 
60 to 62 °C | Cc1sc(N(C)CCOc2ccc(CC3SC(=O)NC3=O)cc2)nc1-c1ccccc1 (centres unmarked) [Example 13, 5-(4-[2-(N-Methyl-N-[2-(4-phenyl-5-methylthiazolyl)]amino)ethoxy]benzyl)-2,4-thiazolidinedione] | 37% | 
174 °C | Cc1nc(N(C)CCOc2ccc(CC3SC(=O)NC3=O)cc2)sc1-c1ccccc1 (centres unmarked) [Example 15, 5-(4-[2-(N-Methyl-N-[2-(4-methyl-5-phenylthiazolyl)]amino)ethoxy]benzyl)-2,4-thiazolidinedione] | 39% | 
 | Cc1csc(N(C)CCOc2ccc(CC3SC(=O)NC3=O)cc2)n1 (centres unmarked) [Example 17, 5-(4-[2-(N-Methyl-N-[2-(4-methylthiazolyl)]amino)ethoxy]benzyl)-2,4-thiazolidinedione] | 34% | 
200 °C | CN(CCOc1ccc(CC2SC(=O)NC2=O)cc1)c1ncc(-c2ccccc2)o1 (centres unmarked) [Example 19, 5-[4-(2-(N-Methyl-N-[2-(5-phenyloxazolyl)]amino)ethoxy)benzyl]-2,4-thiazolidinedione] |  | inhibition in vivo at 30 µmol/kg [1, 3]: 22%
191 °C | CN(CCOc1ccc(/C=C2\SC(=O)NC2=O)cc1)c1ncc(-c2ccccc2)o1 [Example 20, 5-(4-[2-(N-Methyl-N-[2-(5-phenyloxazolyl)]amino)ethoxy]benzylidene)-2,4-thiazolidinedione] |  | 
 | Cc1nc(N(C)CCOc2ccc(CC3SC(=O)NC3=O)cc2)oc1C (centres unmarked) [Example 21, 5-(4-[2-(N-Methyl-N-[2-(4,5-dimethyloxazolyl)]amino)ethoxy]benzyl)-2,4-thiazolidinedione] |  | inhibition in vivo at 30 µmol/kg [1, 3]: 33%
234 °C | O=C1NC(=O)/C(=C/c2ccc(OCCNc3ncccn3)cc2)S1 [Example 24, 5-[4-(2-(2-Pyrimidinylamino)ethoxy)benzylidene]-2,4-thiazolidinedione] |  | inhibition in vivo at 30 µmol/kg [1, 3]: 15%
 | CC(=O)N(CCOc1ccc(CC2SC(=O)NC2=O)cc1)c1ncccn1 (centres unmarked) [Example 25, 5-(4-[2-(N-Acetyl-N-(2-pyrimidinyl)amino)ethoxy]benzyl)-2,4-thiazolidinedione] |  | inhibition in vivo at 30 µmol/kg [1, 3]: 19%
 | O=C1NC(=O)C(Cc2ccc(OCCN(Cc3ccccc3)c3nc4ccccc4s3)cc2)S1 (centres unmarked) [Example 27, 5-(4-(2-(N-(2-Benzothiazolyl)-N-benzylamino)ethoxy)benzyl)-2,4-thiazolidinedione] |  | inhibition in vivo at 300 µmol/kg [1, 3]: 56%
202 to 204 °C | CN(CCCOc1ccc(/C=C2\SC(=O)NC2=O)cc1)c1nc2ccccc2o1 [Example 29, 5-(4-[3-(N-Methyl-N-(2-benzoxazolyl)amino)propoxy]benzylidene)-2,4-thiazolidinedione] |  | inhibition in vivo at 300 µmol/kg [1, 3]: 32%
177 to 179 °C | CN(CCOc1ccc(/C=C2\SC(=O)NC2=O)cc1)c1ccccn1 [Example 31, 5-(4-[2-(N-Methyl-N-(2-pyridyl)amino)ethoxy]benzylidene)-2,4-thiazolidinedione] |  | 
202 to 203 °C | O=C1NC(=O)C(Cc2ccc(OCCNc3nc4ccccc4o3)cc2)S1 (centres unmarked) [Example 35, 5-(4-[2-(N-(2-Benzoxazolyl)amino)ethoxy]benzyl)-2,4-thiazolidinedione] | 44% | 
 | CC(C)N(CCOc1ccc(CC2SC(=O)NC2=O)cc1)c1nc2ccccc2o1 (centres unmarked) [Example 36, 5-(4-[2-(N-Isopropyl-N-(2-benzoxazolyl)amino)ethoxy]benzyl)-2,4-thiazolidinedione] | 20% | 

Molecule | melting point | inhibition in vivo at 100 µmol/kg [1, 3] | other results
CN(CCCCOc1ccc(/C=C2\SC(=O)NC2=O)cc1)c1nc2ccccc2o1 [Example 32, 5-(4-[4-(N-Methyl-N-(2-benzoxazolyl)amino)butoxy]benzylidene)-2 4-thiazolidinedione] | 168 °C |  | 
CN(CCCCOc1ccc(CC2SC(=O)NC2=O)cc1)c1nc2ccccc2o1 (centres unmarked) [Example 33, 5-(4-[4-(N-Methyl-N-(2-benzoxazolyl)amino)butoxy]benzyl)-2,4-thiazolidinedione] | 112 °C |  | inhibition in vivo at 300 µmol/kg [1, 3]: 25%
